Assay results as given in patent US20250248979A1, “NOVEL GPX4 INHIBITORS AND USES THEREOF” (THE TRUSTEES OF COLUMBIA UNIVERSITY IN THE CITY OF NEW YORK, priority 2022, published 2025).
Changes are numbered by the printed parent chain. In brackets after ≈: the same amount, converted by molar mass. Entries after “also recorded” stand apart in the source; their conditions may differ. Where two headings read alike, the source gives them in different places.

Columns and labels:
[1] = target: panel of 44 targets (GPCRs, ion channels, enzymes, transporters, nuclear receptors) (Homo sapiens, UniProt P08172); conditions: Muscarinic M2; RL [3H]-AF-DX384 5 nM; read-out: IC50 (M) Reference Compound (EC50 for agonist)
[2] = target: panel of 44 targets (GPCRs, ion channels, enzymes, transporters, nuclear receptors)
[3] = target: panel of 44 targets (GPCRs, ion channels, enzymes, transporters, nuclear receptors) (Homo sapiens, UniProt P28222); conditions: IC50 (M) Reference Compound (EC50 for agonist)
[4] = tested on: lipid peroxidation in HT-1080 cells; experiment: C11-BODIPY lipid peroxidation flow cytometry assay; format: cell-based, human; conditions: HT-1080 cells, with and without fer-1
HT-1080 cells = experiment: Cellular dose response assay, HT-1080 with and without Fer-1; format: cell-based, human; conditions: for ferroptosis induction / potency in HT-1080 cells, result in words: RSL3 as control; for Selectivity: ferroptosis selectivity, HT1080 + Fer-1 vs HT1080
Method in brief: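 1500 cells/well, o/n; 12-pt 2-fold dilns, ±Fer-1 (HT-1080), 0.4% DMSO, n=3 technical; 48 h, 37 °C/5% CO2; CellTiter-Glo lum. Huh7, HLF, HT-1080 grown in DMEM/10% HI-FBS; SK-HEP-1 in EMEM/10% HI-FBS.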

GPX4 = target: T1, GPX4 (Homo sapiens, UniProt P36969); experiment: GPX4 activity assay in cell lysates (NADPH-coupled); format: biochemical; design: endogenous in cells; host or cells: A-673 cell lysate; conditions: for GPX4% inhibition at 200 (μM): mean ± s.d., n = 3
T1 sequence (P36969 1-170 isoform P36969-2): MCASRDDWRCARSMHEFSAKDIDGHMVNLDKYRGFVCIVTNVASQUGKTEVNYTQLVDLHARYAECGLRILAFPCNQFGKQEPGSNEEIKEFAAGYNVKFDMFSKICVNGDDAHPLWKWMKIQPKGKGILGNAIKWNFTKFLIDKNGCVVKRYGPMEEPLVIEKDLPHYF
Method in brief: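 Native GPX4 in lysates of A-673 cells grown with 20 nM sodium selenite; lysate preincubated with compound 45 min at 37 °C in pH 8.0 buffer with 3 mM GSH, 0.5 mM NADPH and glutathione reductase. Reaction started with phosphatidylcholine hydroperoxide; NADPH consumption followed at 340 nm over 25 min; triplicates.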

HepG2 cells = experiment: Cellular dose response assay, HepG2; format: cell-based, human
Source text: HT-1080 (human [Homo sapiens] […] fibrosarcoma), A-673 (human [Homo sapiens] […] Ewing's sarcoma), and SK-HEP-1 (human [Homo sapiens] […] hepatic adenocarcinoma), cells were obtained from ATCC. Huh7 (human [Homo sapiens] […] hepatocellular carcinoma), HLF (human [Homo sapiens] […] hepatocellular carcinoma), HepG2 (human [Homo sapiens] […] hepatocellular carcinoma), cells were obtained from the Cancer Cell Bank at Columbia University Irving Medical Center. HT-1080, A-673, Huh-7, and HLF cells were grown in Dulbecco's Modified Eagle Medium (DMEM) supplemented with 10% heat inactivated fetal bovine serum (HI-FBS), 1% non-essential amino acids, and 1% penicillin streptomycin. HepG2 and SK-HEP-1 cells were grown in Eagle's Minimum Essential Medium (EMEM) supplemented with 10% HI-FBS, and 1% penicillin-streptomycin. All cells were cultured at 37° C. and 5% CO2.
HT-1080, HepG2, Huh7, HLF, and SK-HEP-1 cells were seeded into opaque white 384-well plates at 1500 cells per well then incubated at 37° C. with 5% CO2 overnight. The next day, compounds of interest were dissolved in DMSO and 12-point 2-fold dilution series were prepared with and without Fer-1. Cells were treated in triplicate (final DMSO concentration of 0.4% in all wells, including DMSO-only control wells) and incubated for a further 48 hours at 37° C. and 5% CO2. Cell viability was evaluated using CellTiter-Glo (Promega G7573) and luminescence was recorded on a Victor 5 plate reader. Data were analyzed in GraphPad Prism 9 and error bars represent standard deviation values for three technical replicates in a representative experiment.

GPX4^U46C = target: T2, GPX4^U46C (Homo sapiens, UniProt P36969, U73C); experiment: Microscale thermophoresis (MST) binding; conditions: half maximal effective concentration, covalent mechanism
T2 construct: made in house; host or cells: E. coli BL21-Gold (DE3)
T2 sequence (P36969 1-170 isoform P36969-2 U46C): T1 sequence (P36969 1-170 isoform P36969-2) with U46C
Experimental: The bacterial expression vector pET-15b-His-tagged-c-GPX4^U46C was prepared as previously described (Yang et al. 2016). The C-terminal His-tagged GPX4U46C protein was expressed in E. coli and purified according to a protocol modified from Scheerer et al. 2007. First, pET-15b-His-tagged-c-GPX4^U46C was transformed into XL10-Gold (Agilent #200314) E. coli ultracompetent cells for plasmid DNA production and isolated using QIAprep Spin Miniprep Kit (Qiagen). For protein expression, pET-15b-His-tagged-c-GPX4^U46C was then transformed into BL21-Gold (DE3) E. coli competent cells (Agilent #230132) and plated on LB agar with 100 μg/mL ampicillin. A starter culture was inoculated in 7 mL of LB medium with 100 μg/mL ampicillin using a single colony and allowed to grow in a 37° C. shaker (225 rpm) for 16 hours. 3 mL of the starter culture was added to 1 L of LB medium with 100 μg/mL ampicillin, which was then incubated in a 37° C. shaker (225 rpm) to an OD600 of 0.9. At that point, the incubation temperature was reduced to 15° C. and the culture was allowed to equilibrate for 1 hour. Expression of the recombinant enzyme was induced by addition of isopropyl β-D-1-thiogalactopyranoside (IPTG, 1 mM final concentration) overnight for 12-15 hours shaking at 225 rpm and 15° C. The next morning, cells were harvested by centrifugation at 4000 rpm and 4° C. for 20 minutes. The cell pellet was then frozen at −80° C. for at least 1 hour or until lysis. To lyse the cells, the cell pellet was resuspended with 25 mL of chilled lysis buffer (100 mM Tris pH 8.0, 300 mM NaCl, 20 mM imidazole, 3 mM TCEP, and 2.5 mini tablets of complete Protease Inhibitor Cocktail (Roche-Sigma #11836170001)) then lysed using an Emulsiflex C3 high-pressure homogenizer. To remove cell debris, the lysate was subjected to centrifugation at 10000 rpm and 4° C. for 20 minutes. The supernatant was centrifuged once more at the same conditions, then the clarified lysate was applied onto a 5-mL HisTrap HP column (Cytiva #17-5248-01), washed with 90% Buffer A (100 mM Tris pH 8.0, 300 mM NaCl, 5% glycerol, 3 mM TCEP) 10% Buffer B (Buffer A with 500 mM imidazole), then eluted with a continuous gradient (10-100% Buffer B). The protein was concentrated using Amicon Ultra-15 centrifugal filter units with a 10 kDa molecule weight cutoff (EMD Millipore #UFC901024) then further purified by FPLC on a size exclusion HiLoad Superdex 200 column (Cytiva) in crystallization buffer (20 mM Tris pH 8.0, 300 mM NaCl, 3 mM TCEP). The fractions containing 90-95% pure GPX4 protein, as evaluated by SDS-PAGE, were pooled and concentrated using the same Amicon centrifugal filter units as above to 5 mg/mL. Concentration was determined by Nanodrop. Protein was aliquoted into Eppendorf tubes, flash frozen using liquid nitrogen, and stored at −80° C. until use.
MST experiments were conducted using a Monolith NT.115 (Nanotemper Technologies) according to manufacturer instructions. To label the protein, 90 μL of 200 nM GPX4^U46C was combined with 90 μL of 100 nM RED-tris-NTA dye diluted in PBS buffer with 0.05% Tween 20 (PBST buffer). The mixture was incubated for 30 minutes at room temperature, followed by centrifugation for 10 minutes at 4° C. and 15,000×g. To assess binding of the compounds, a 16-point 2-fold dilution series in PBST buffer was prepared and mixed in a 1:1 ratio with the labeled protein solution for a final volume of 20 μL. The reaction mixture was loaded into standard treated capillary tubes and analyzed with the Monolith NT.115 at 40% LED power and 40% MST power with a laser-on time of 5 seconds. The data were analyzed in MO.Affinity Analysis v2.3 software.

[5] = Kinetic aqueous solubility; conditions: aqueous solubility; Table 9
in vitro [6] = format: in vitro ADME, human; conditions: human, microsomes
Experimental: (§1) […]. The incubation timepoints measured were 0, 5, 10, 15, 30, and 45 minutes. All samples were prepared in duplicate and analyzed by LC-MS/MS.

[7] = not given; remark: listed apart in the source
in vitro [8] = format: in vitro ADME, mouse; conditions: mouse, microsomes
Experimental: as §1

[9] = target: panel of 44 targets (GPCRs, ion channels, enzymes, transporters, nuclear receptors) (Homo sapiens, UniProt P08913); conditions: Adrenergic a2A; RL [3H]-RX821002 5 nM; read-out: IC50 (M) Reference Compound (EC50 for agonist)
[10] = target: panel of 44 targets (GPCRs, ion channels, enzymes, transporters, nuclear receptors) (Homo sapiens, UniProt P25101); conditions: Endothelin ETA (Antagonist); read-out: IC50 (M) Reference Compound (EC50 for agonist)
[11] = read-out: IC50 (M) Reference Compound (EC50 for agonist)
[12] = HT1080 + Fer-1, read-out: IC50 (uM) HT1080 + Fer-1
[13] = HT1080, without Fer-1, read-out: IC50 (uM) HT1080

Chain of panel of 44 targets (GPCRs, ion channels, enzymes, transporters, nuclear receptors) (Homo sapiens, UniProt P08913) (P08913 whole entry): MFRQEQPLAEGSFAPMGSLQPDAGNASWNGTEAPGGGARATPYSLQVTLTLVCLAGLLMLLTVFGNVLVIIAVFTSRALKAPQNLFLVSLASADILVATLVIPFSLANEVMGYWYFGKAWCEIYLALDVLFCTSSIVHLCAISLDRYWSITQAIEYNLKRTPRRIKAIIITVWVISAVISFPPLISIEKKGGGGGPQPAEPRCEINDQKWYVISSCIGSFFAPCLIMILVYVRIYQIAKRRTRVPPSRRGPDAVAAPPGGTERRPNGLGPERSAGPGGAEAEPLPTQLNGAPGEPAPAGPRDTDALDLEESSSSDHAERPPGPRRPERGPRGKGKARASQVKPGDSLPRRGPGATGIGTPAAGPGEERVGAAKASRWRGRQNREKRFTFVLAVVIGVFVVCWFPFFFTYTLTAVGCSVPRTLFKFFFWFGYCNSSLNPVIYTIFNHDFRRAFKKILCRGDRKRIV
Chain of panel of 44 targets (GPCRs, ion channels, enzymes, transporters, nuclear receptors) (Homo sapiens, UniProt P25101) (P25101 21-427): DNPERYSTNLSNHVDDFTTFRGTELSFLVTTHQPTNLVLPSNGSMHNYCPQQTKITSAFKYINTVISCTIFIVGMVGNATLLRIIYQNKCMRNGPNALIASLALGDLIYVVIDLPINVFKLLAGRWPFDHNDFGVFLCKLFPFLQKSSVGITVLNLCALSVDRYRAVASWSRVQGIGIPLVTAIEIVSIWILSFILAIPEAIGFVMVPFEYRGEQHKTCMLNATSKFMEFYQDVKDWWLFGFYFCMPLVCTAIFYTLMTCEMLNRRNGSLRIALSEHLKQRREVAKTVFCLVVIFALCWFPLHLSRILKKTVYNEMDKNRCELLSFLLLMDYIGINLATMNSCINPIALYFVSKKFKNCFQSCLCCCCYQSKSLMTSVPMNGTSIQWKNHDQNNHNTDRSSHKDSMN
Chain of panel of 44 targets (GPCRs, ion channels, enzymes, transporters, nuclear receptors) (Homo sapiens, UniProt P28222) (P28222 whole entry, looked up): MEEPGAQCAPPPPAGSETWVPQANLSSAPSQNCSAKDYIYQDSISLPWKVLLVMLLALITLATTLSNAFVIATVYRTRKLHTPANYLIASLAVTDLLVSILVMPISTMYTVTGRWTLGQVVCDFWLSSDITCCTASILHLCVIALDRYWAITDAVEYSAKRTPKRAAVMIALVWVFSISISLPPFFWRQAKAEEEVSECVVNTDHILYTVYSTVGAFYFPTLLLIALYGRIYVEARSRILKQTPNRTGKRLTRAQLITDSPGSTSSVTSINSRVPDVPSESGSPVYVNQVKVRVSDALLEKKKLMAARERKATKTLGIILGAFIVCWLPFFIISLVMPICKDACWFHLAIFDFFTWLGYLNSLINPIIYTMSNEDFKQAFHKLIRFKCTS
Chain of panel of 44 targets (GPCRs, ion channels, enzymes, transporters, nuclear receptors) (Homo sapiens, UniProt P08172) (P08172 whole entry): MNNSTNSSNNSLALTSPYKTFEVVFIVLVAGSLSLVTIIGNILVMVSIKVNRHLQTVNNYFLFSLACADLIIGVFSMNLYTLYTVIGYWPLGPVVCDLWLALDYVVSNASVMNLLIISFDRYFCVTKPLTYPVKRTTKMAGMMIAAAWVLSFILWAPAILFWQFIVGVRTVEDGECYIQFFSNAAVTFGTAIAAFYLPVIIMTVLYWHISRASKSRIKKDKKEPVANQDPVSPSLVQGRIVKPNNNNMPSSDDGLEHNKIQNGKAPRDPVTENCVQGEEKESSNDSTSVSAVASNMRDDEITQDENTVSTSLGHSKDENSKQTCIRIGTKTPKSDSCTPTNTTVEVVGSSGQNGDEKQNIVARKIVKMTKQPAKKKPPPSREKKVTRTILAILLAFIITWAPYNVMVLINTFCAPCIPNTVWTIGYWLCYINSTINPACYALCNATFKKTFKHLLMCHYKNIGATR

CCCN(CCC)CC1CCCCN1CCNC(=O)N1c2ccccc2C(=O)Nc2cccnc21 (stereo not drawn) [AF-DX384]
IC50 [1]: 1.93e-08 M

Clc1ccc(C2CC3CCC2N3)cn1 (stereo not drawn) [Epibatidine]
EC50 [2, 11]: 2.5e-09 M

COc1ccc(NC(=O)c2ccc(-c3ccncc3)c(C)c2)cc1N1CCN(C)CC1 [GR125743]
IC50 [3]: 1.49e-08 M

C[C@]12N[C@H](Cc3ccccc31)c1ccccc12 [MK-801]
IC50 [2, 11]: 2.75e-08 M

CNC1(C)C2CCC(C2)C1(C)C (stereo not drawn) [Mecamylamine]
IC50 ([2]; read-out: IC50 (M) Reference Compound): 8.31e-07 M | IC50 [2, 11]: 6.8e-07 M

Cn1c(C(=O)n2ccnc2)cc2ccccc21 [QW-057]
lipid peroxidation (C11-BODIPY), result in words [4]: did not induce lipid peroxidation | ferroptosis induction / potency in HT-1080 cells, result in words (HT-1080 cells): no fer-1 rescue was observed | IC50 (HT-1080 cells; compounds alone, read-out: IC50 (μM) HT1080^a): 64 µM | IC50 (HT-1080 cells; compounds and fer-1 1.0 μM, read-out: IC50 (μM) HT1080^b): 64.2 µM | fold increase in GPX4 inhibitory activity in comparison to LOC1886 (GPX4; 200 uM): ~2 fold | GPX4% inhibition at 200 (μM) (GPX4): 59.8 ± 12.5% | IC50 (HepG2 cells; compounds alone, read-out: IC50 (μM) HEPG2^a): 97.7 µM | IC50 (HepG2 cells; compounds and fer-1 1.0 μM, read-out: IC50 (μM) HEPG2^b): 82.6 µM

COc1cccc2[nH]c(C(=O)NC(C)(C)COC(=O)CCl)cc12 [QW-144]
EC50 (GPX4^U46C): 836 nM | GPX4% inhibition at 200 (μM) (GPX4; generation 1): 50.0 ± 32.5%

Cc1ccc2[nH]c(C(=O)NC(C)(C)COC(=O)CCl)cc2c1 [QW-155]
EC50 (GPX4^U46C): 473000 nM | GPX4% inhibition at 200 (μM) (GPX4; generation 1): 50.9 ± 3.6%

CC(C)(COC(=O)CCl)NC(=O)c1cc2cc(Cl)ccc2[nH]1 [QW-164]
EC50 (GPX4^U46C): 2100 nM | GPX4% inhibition at 200 (μM) (GPX4; generation 1): 53.3 ± 37.8%

Cn1nc(C(=O)NC(C)(C)COC(=O)CCl)c2ccc(-c3ccc(N4CCOCC4)c(Cl)c3)cc21 [QW-562]
Plasma Stability t1/2 (min) human (Plasma stability, human): 7.4 min | IC50 (HT-1080 cells; [12]): 7.2 µM | IC50 (HT-1080 cells; [13]): 1.1 µM | Selectivity (HT-1080 cells): 6.5 | Plasma Stability t1/2 (min) mouse (Plasma stability, mouse): 5.3 min | GPX4 inhibitory activity, result in words (GPX4): slightly higher potencies than their parent compound | GPX4% inhibition at 2.5 μM (GPX4): 77.6 ± 12.0% | GPX4% inhibition at 5 μM (GPX4; 5 μM): 95.8 ± 2.0% | Solubility [5]: 7.8 µM (≈ 4.05 µg/mL)

Cn1nc(C(=O)NC(C)(C)CNC(=O)CCl)c2ccc(Br)cc21 [QW-624]
Microsome Stability t1/2 (min) human (in vitro [6]): 8.8 min | Plasma Stability t1/2 (min) human: 142 min | Plasma Stability t1/2 (min) mouse [7]: 685 min | lipid peroxidation (C11-BODIPY), result in words [4]: still active in lipid peroxidation assay | GPX4% inhibition at 2.5 μM (GPX4; generation 2): −9.6 ± 4.4% | Microsome Stability t1/2 (min) mouse (in vitro [8]): 1.2 min

CCOc1ccc(-c2ccc3c(C(=O)NC(C)(C)COC(=O)CCl)nn(C)c3c2)cc1Cl [QW-655]
Plasma Stability t1/2 (min) human (Plasma stability, human): 16.8 min | IC50 (HT-1080 cells; [12]): 15.6 µM | IC50 (HT-1080 cells; [13]): 0.7 µM | ferroptosis induction / potency in HT-1080 cells, result in words (HT-1080 cells): sub-micromolar GI50 value; also recorded: sub-molar range cellular activities and decreased ferroptosis selectivity | Selectivity (HT-1080 cells): 22.3 | Plasma Stability t1/2 (min) mouse (Plasma stability, mouse): 2.6 min | GPX4 inhibitory activity, result in words (GPX4): greatest potency; also recorded: slightly higher potencies than their parent compound | GPX4% inhibition at 2.5 μM (GPX4): 106.9 ± 5.6%

COC1(C2=NCCN2)COc2ccccc2O1 (stereo not drawn) [RX821002]
IC50 [9]: 8.51e-09 M

Cc1cc2c(cc1CC(=O)c1sccc1S(=O)(=O)Nc1onc(C)c1Cl)OCO2 [Sitaxentin]
IC50 [10]: 8.07e-08 M
